Paper PMC3757248, “Antiestrogen-binding site ligands induce autophagy in myeloma cells that proceeds through alteration of cholesterol metabolism” (Oncotarget, 2013)

Tests used:
[1] = tested on: LP-1 cells; experiment: Sterols accumulated in cells, HPLC and GC/MS; assay type: cell-based, human; conditions: LP1, 48 h incubation
Description: (§1) The organic layer was reduced to dryness under a flux of argon and the residue was resuspended in ethanol. Sterols were analyzed by liquid chromatography and gas-liquid chromatography as described before. Neutral lipids and sphingomyelin analyses were done according to previously published procedures.

[2] = tested on: RPMI 8226 cells; experiment: Sterols accumulated in cells, HPLC and GC/MS; assay type: cell-based, human; conditions: RPMI 8226, 48 h incubation
Description: as §1

[3] = tested on: OPM-2; design: method as in earlier work; conditions: cited from earlier work
[4] = tested on: U266; design: method as in earlier work; conditions: cited from earlier work
[5] = tested on: MM tumors; design: method as in PMID 20033476, PMID 16753295; conditions: xenografted mice bearing MM tumors; cited from earlier work
[6] = tested on: RPMI 8226 cells; experiment: Electron microscopy for MLBs, AVs and UVs; assay type: cell-based, human; conditions: 48 h, 10 μM drug (PBPE 40 μM)
[7] = tested on: RPMI 8226; design: method as in earlier work; conditions: cited from earlier work
[8] = molecular target: ChEH (Homo sapiens, UniProt Q15125+Q9UBM7); experiment: ChEH activity in HMCLs (TLC); assay type: cell-based; design: endogenous in cells; host or cells: RPMI 8226 and LP-1 human multiple myeloma cell lines; conditions: OHT, Tam, RU 58668 10 μM, PBPE 40 μM
Source text: Cells were then pelleted and extracted with chloroform/methanol (2/1). The organic layer was reduced to dryness under a flux of argon and the residue was resuspended in EtOH. Samples were applied to thin layer chromatography (TLC) plates and developed using ethyl acetate as previously described. The radioactive metabolites were visualized by autoradiography using Kodak Biomax MS films.

[9] = tested on: HMCLs; experiment: Free sterol accumulation in HMCLs; assay type: cell-based, human
Description: as §1

[10] = tested on: LP-1 cells; experiment: Electron microscopy for MLBs, AVs and UVs; assay type: cell-based, human; conditions: 48 h, 10 μM drug (PBPE 40 μM)
[11] = tested on: Karpas 620; design: method as in earlier work; conditions: cited from earlier work
[12] = tested on: LP-1; design: method as in earlier work; conditions: cited from earlier work
[13] = tested on: NCI-H929; design: method as in earlier work; conditions: cited from earlier work
[14] = tested on: LP-1 cells; experiment: Presence of 5,6-EC in cells by GC/MS; assay type: cell-based, human; conditions: 48 h, 10 μM drug (PBPE 40 μM)
Description: as §1

[15] = tested on: RPMI 8226 cells; experiment: Presence of 5,6-EC in cells by GC/MS; assay type: cell-based, human; conditions: 48 h, 10 μM drug (PBPE 40 μM)
Description: as §1

[16] = tested on: RPMI 8226 and LP-1 cells; experiment: Intracellular free sterol, TG and SM contents; assay type: cell-based, human; conditions: 5 µM OHT, 20 µM PBPE or 5 µM RU 58668 for three days
Description: as §1

[17] = molecular target: AEBS (Homo sapiens, UniProt Q15125+Q9UBM7); experiment: Binding to the AEBS in HMCLs; design: endogenous in cells; host or cells: RPMI 8226 and LP-1 human multiple myeloma cell lines
[18] = tested on: RPMI 8226 and LP-1 cells; experiment: Degradation of long-lived proteins; assay type: cell-based, human; conditions: both cell lines, 10 μM OHT, 40 μM PBPE
Description: The degradation of long-lived proteins was measured as described previously. Briefly, HMCLs were incubated for 24 h at 37°C with 0.2 μCi/ml of L-[[14]C]valine in complete medium. Cells were then washed resuspended in medium with no nutrients but supplemented with 10 mM valine. After the first h of incubation, the chase medium was replaced by complete medium and the incubation continued for 5 h. […] Radiolabeled proteins present in the chase medium as well as in cells were precipitated with 10% trichloroacetic acid (v/v) at 4°C. Radioactivity was measured by scintillation counting. The rate of protein degradation was calculated from the ratio of radioactivity in the medium to that of precipitated cell fraction.

[19] = RPMI 8226, presence of 500 μM Vit E

Chain of ChEH (Q15125 whole entry): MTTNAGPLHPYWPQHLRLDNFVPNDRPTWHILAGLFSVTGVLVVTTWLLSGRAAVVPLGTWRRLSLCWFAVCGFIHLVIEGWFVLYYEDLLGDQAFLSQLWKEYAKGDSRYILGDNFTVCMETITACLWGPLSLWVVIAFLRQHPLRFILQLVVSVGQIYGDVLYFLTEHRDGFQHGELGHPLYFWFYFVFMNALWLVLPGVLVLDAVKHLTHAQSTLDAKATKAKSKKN
Chain of ChEH (Q9UBM7 whole entry): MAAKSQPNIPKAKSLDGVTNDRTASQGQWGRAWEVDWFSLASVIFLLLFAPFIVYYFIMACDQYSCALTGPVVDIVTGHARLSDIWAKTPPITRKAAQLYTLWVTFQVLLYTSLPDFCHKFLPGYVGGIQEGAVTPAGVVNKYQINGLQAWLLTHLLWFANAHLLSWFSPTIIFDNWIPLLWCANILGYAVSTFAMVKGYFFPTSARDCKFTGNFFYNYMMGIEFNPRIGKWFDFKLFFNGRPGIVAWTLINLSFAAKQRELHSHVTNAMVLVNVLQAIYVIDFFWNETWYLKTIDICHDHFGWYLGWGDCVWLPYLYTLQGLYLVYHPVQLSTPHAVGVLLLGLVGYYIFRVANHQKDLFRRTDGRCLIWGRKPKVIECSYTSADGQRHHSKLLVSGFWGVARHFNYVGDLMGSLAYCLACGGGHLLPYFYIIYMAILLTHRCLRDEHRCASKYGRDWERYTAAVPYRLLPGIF
Chain of AEBS (Q15125 whole entry): as the sequence (Q15125 whole entry) above
Chain of AEBS (Q9UBM7 whole entry): as the sequence (Q9UBM7 whole entry) above

CC/C(=C(\c1ccc(O)cc1)c1ccc(OCCN(C)C)cc1)c1ccccc1 [OHT]
Desmosterol [1]: 44.4 percent by the weight of total sterol | Zymostenol [1]: 1.9 percent by the weight of total sterol | Zymostenol [2]: 1.8 percent by the weight of total sterol | SERM and SERDs effects on MM cell lines [3]: No response | SERM and SERDs effects on MM cell lines [4]: G1-arrest and apoptosis | tumor growth [5]: block tumor growth | AV ([6]; RPMI 8226, absence of Vit E): + + (The sign + means that 80 % cells were positive and contained at least 5 vesicles) | MLB ([6]; RPMI 8226, absence of Vit E): + + (The sign + means that 80 % cells were positive and contained at least 5 vesicles) | UV ([6]; RPMI 8226, absence of Vit E): + (The sign + means that 80 % cells were positive and contained at least 5 vesicles) | AV [6, 19]: + + (The sign + means that 80 % cells were positive and contained at least 5 vesicles) | MLB [6, 19]: + + (The sign + means that 80 % cells were positive and contained at least 5 vesicles) | UV [6, 19]: − (otherwise they were considered as negative (-)) | SERM and SERDs effects on MM cell lines [7]: G1-arrest and apoptosis | ChEH activity, conversion of 5,6-EC into CT by TLC [8]: ChEH activity was inhibited | free sterol accumulated [9]: accumulation of desmosterol | AV ([10]; LP-1, absence of Vit E): + + (The sign + means that 80 % cells were positive and contained at least 5 vesicles) | MLB ([10]; LP-1, absence of Vit E): + + (The sign + means that 80 % cells were positive and contained at least 5 vesicles) | UV ([10]; LP-1, absence of Vit E): + (The sign + means that 80 % cells were positive and contained at least 5 vesicles) | AV ([10]; LP-1, presence of 500 μM Vit E): + + (The sign + means that 80 % cells were positive and contained at least 5 vesicles) | MLB ([10]; LP-1, presence of 500 μM Vit E): + + (The sign + means that 80 % cells were positive and contained at least 5 vesicles) | UV ([10]; LP-1, presence of 500 μM Vit E): − (otherwise they were considered as negative (-)) | SERM and SERDs effects on MM cell lines [11]: No response | SERM and SERDs effects on MM cell lines [12]: G1-arrest and apoptosis | SERM and SERDs effects on MM cell lines [13]: G1-arrest and apoptosis | 5,6-EC ([14]; LP-1, absence of Vit E): + | 5,6-EC ([14]; LP-1, presence of 500 μM Vit E): − | 5,6-EC ([15]; RPMI 8226, absence of Vit E): + | 5,6-EC [15, 19]: − | intracellular free sterol, triacylglycerol (TG) and sphingomyelin (SM) contents [16]: increases | affinity for the AEBS [17]: high affinity | rate of long-lived protein degradation [18]: stimulated
